Experimental data: patent US9796686B2, “Antibacterial quinazoline-4(3H)-one derivatives” (priority 2014, dated 2017)
Converted amounts (≈) assume the structure as drawn.

Legend:
Test in all cases: Bacterial growth minimal inhibitory concentration, microdilution in cation-adjusted Mueller-Hinton Broth (CLSI M7-A7)
Type in all cases: cell-based
K. pneumoniae A-651 = details: Klebsiella pneumoniae, A651; multiply-resistant strain (in particular quinolone-resistant); read-out: MIC for K. Pneumoniae A-651
Description: (§1) Minimal Inhibitory Concentrations (MICs; mg/L) were determined in cation-adjusted Mueller-Hinton Broth by a microdilution method following the description given in “Methods for Dilution Antimicrobial Susceptibility Tests for Bacteria that Grow Aerobically”, Approved standard, 7th ed., Clinical and Laboratory Standards Institute (CLSI) Document M7-A7, Wayne, Pa., U.S.A. (2006).
(§2) All Example compounds were tested against several Gram-positive and Gram-negative bacteria. […] K. pneumoniae A-651 is a multiply-resistant strain (in particular quinolone-resistant), while E. coli ATCC25922 and P. aeruginosa ATCC27853 are quinolone-sensitive strains.

E. coli ATCC25922 = details: Escherichia coli, ATCC25922; quinolone-sensitive strain; read-out: MIC for E. coli ATCC25922
Description: as §1, §2

P. aeruginosa ATCC27853 = details: Pseudomonas aeruginosa, ATCC27853; quinolone-sensitive strain; read-out: MIC for P. aeruginosa ATCC27853
Description: as §1, §2

| MIC (K. pneumoniae A-651) | MIC (E. coli ATCC25922) | MIC (P. aeruginosa ATCC27853) | Structure (SMILES) |
| --- | --- | --- | --- |
| 4 µg/mL (≈ 8.14 µM) | 4 µg/mL (≈ 8.14 µM) | 4 µg/mL (≈ 8.14 µM) | C[C@@](CCn1cnc2cc(C#CC#CCC3(O)COC3)c(F)cc2c1=O)(C(=O)NO)S(C)(=O)=O [Example 35, (R)-4-(6-fluoro-7-(5-(3-hydroxyoxetan-3-yl)penta-1,3-diyn-1-yl)-4-oxoquinazolin-3(4H)-yl)-N-hydroxy-2-methyl-2-(methylsulfonyl)butanamide] |
| 2 µg/mL | 1 µg/mL | 16 µg/mL | CC(CCn1cnc2cc(-c3ccc(OCCCN4CCOCC4)cc3F)ccc2c1=O)(C(=O)NO)S(C)(=O)=O.O=CO (racemic) [RE1, (RS)-4-(7-(2-fluoro-4-(3-morpholinopropoxy)phenyl)-4-oxoquinazolin-3(4H)-yl)-N-hydroxy-2-methyl-2-(methylsulfonyl)butanamide formate] |
| 4 µg/mL (≈ 8.71 µM) | 4 µg/mL (≈ 8.71 µM) | 4 µg/mL (≈ 8.71 µM) | C[C@@](CCn1cnc2cc(C#CC#CC3(O)COC3)ccc2c1=O)(C(=O)NO)S(C)(=O)=O [Example 4, (R)-N-hydroxy-4-(7-((3-hydroxyoxetan-3-yl)buta-1,3-diyn-1-yl)-4-oxoquinazolin-3(4H)-yl)-2-methyl-2-(methylsulfonyl)butanamide] |
| 2 µg/mL | 1 µg/mL | 16 µg/mL | CC(CCn1cnc2cc(-c3ccc(CN4CCOCC4)cc3)ccc2c1=O)(C(=O)NO)S(C)(=O)=O.O=CO (racemic) [RE8, (RS)-N-hydroxy-2-methyl-2-(methylsulfonyl)-4-(7-(4-(morpholinomethyl)phenyl)-4-oxoquinazolin-3(4H)-yl)butanamide formate] |
| 1 µg/mL (≈ 1.95 µM) | 1 µg/mL (≈ 1.95 µM) | 8 µg/mL (≈ 15.6 µM) | CC(CCn1cnc2cc(C#Cc3ccc(C4(O)COC4)cc3)ccc2c1=O)(C(=O)NO)S(C)(=O)=O (racemic) [RE11, (RS)-N-hydroxy-4-(7-((4-(3-hydroxyoxetan-3-yl)phenyl)ethynyl)-4-oxoquinazolin-3(4H)-yl)-2-methyl-2-(methylsulfonyl)butanamide] |
| 0.5 µg/mL (≈ 1.09 µM) | 0.125 µg/mL (≈ 0.273 µM) | 1 µg/mL (≈ 2.19 µM) | C[C@@](CCn1cnc2cc(C#CC#C[C@H]3C[C@@H]3CO)ccc2c1=O)(C(=O)NO)S(C)(=O)=O [Example 3, (R)-N-hydroxy-4-(7-(((1S,2S)-2-(hydroxymethyl)cyclopropyl)buta-1,3-diyn-1-yl)-4-oxoquinazolin-3(4H)-yl)-2-methyl-2-(methylsulfonyl)butanamide] |
| 0.25 µg/mL (≈ 0.526 µM) | 0.125 µg/mL (≈ 0.263 µM) | 1 µg/mL (≈ 2.1 µM) | C[C@@](CCn1cnc2cc(C#CC#C[C@H]3C[C@@H]3CO)c(F)cc2c1=O)(C(=O)NO)S(C)(=O)=O [Example 9, (R)-4-(6-fluoro-7-(((1S,2S)-2-(hydroxymethyl)cyclopropyl)buta-1,3-diyn-1-yl)-4-oxoquinazolin-3(4H)-yl)-N-hydroxy-2-methyl-2-(methylsulfonyl)butanamide] |
| 32 µg/mL | 8 µg/mL | 8 µg/mL | C[C@@](CCn1cnc2cc(C#CC#CC3(C(O)CO)CC3)ccc2c1=O)(C(=O)NO)S(C)(=O)=O (mixture of isomers) [Example 19, (2R)-4-(7-((1-((RS)-1,2-dihydroxyethyl)cyclopropyl)buta-1,3-diyn-1-yl)-4-oxoquinazolin-3(4H)-yl)-N-hydroxy-2-methyl-2-(methylsulfonyl)butanamide] |
| 1 µg/mL (≈ 2.16 µM) | 1 µg/mL (≈ 2.16 µM) | 2 µg/mL (≈ 4.32 µM) | CC(C)(O)C#CC#Cc1cc2ncn(CC[C@](C)(C(=O)NO)S(C)(=O)=O)c(=O)c2cc1F [Example 29, (R)-4-(6-fluoro-7-(5-hydroxy-5-methylhexa-1,3-diyn-1-yl)-4-oxoquinazolin-3(4H)-yl)-N-hydroxy-2-methyl-2-(methylsulfonyl)butanamide] |
| ≤ 0.063 µg/mL | 0.125 µg/mL (≈ 0.27 µM) | 8 µg/mL (≈ 17.3 µM) | COc1cccc(-c2ccc3c(=O)n(CCC(C)(C(=O)NO)S(C)(=O)=O)cnc3c2)c1F (racemic) [RE4, (RS)-4-(7-(2-fluoro-3-methoxyphenyl)-4-oxoquinazolin-3(4H)-yl)-N-hydroxy-2-methyl-2-(methylsulfonyl)butanamide] |
